Results from patent US5446129A, “Peptide or its salt for autoimmune hyperthyroidism containing it” (Ishihara Sangyo Kaisha Ltd., priority 1990, dated 1995).
No end group written: not given here.

Test system: production of cAMP under stimulation by TSAb
Assay: Test Example 2: cAMP produced under stimulation by TSAb in FRTL5 cells (96-well)
Type: cell-based, rat
Conditions: TSAb positive IgG
Protocol: Using rat established thyroid cell line FRTL5, the influence of the peptide over the production of cAMP under stimulation by TSAb, was examined in accordance with the method of S. Kosugi et al. (Endocrinology, Vol. 125, No. 1, p 410 (1989)). The method will be described as follows.
Preincubated FRTL5 cells (1.5×10^5 cells/ml) were transferred to a multiplate having 96 wells in an amount of 100 μl per well and incubated in a CO2 incubator for 6 days while changing the medium (having TSH excluded). Then, the medium was removed and the cells were rinsed and subjected to the test. 40 μl of a solution of IgG from TSAb positive serum and 10 μl of a solution containing 0, 15 or 30 μg of the desired peptide were reacted in a test tube at 4° C. for 20 hours. To this reaction solution, 5 μl of a 0.5 mM solution of 3-isobutyl-1-methylxanthine was added, and 50 μl of this reaction solution was added to the previously prepared FRTL5 cells, followed by incubation at 37° C. for two hours.
On the other hand, as control, a test was conducted in the same manner using a normal serum.
With respect to each sample, the quantitative analysis of cAMP produced under stimulation by TSAb was conducted by means of a commercially available cAMP-radioimmunoassay kit (1-VQ12, manufactured by Eiken Kagaku Corporation).

EQEDEIIGFG [Peptide No. 8]
Inhibition rate (15 μg/well peptide): 54% | cAMP (15 μg/well peptide): 3.2 nM | Inhibition rate (30 μg/well peptide): 76% | cAMP (30 μg/well peptide): 1.8 nM
